Key:
[1] = test system: lymphoblastoid cell line MZ2-EBV; test: peptide sensitization chromium release assay: lysis by CTL 82/82 of peptide-incubated target cells; assay type: cell-based, human; details: chromium release after 4 hours; for sensitization of target cells to lysis by CTL 82/82: lymphoblastoid cell line from patient MZ2, various peptide concentrations
Procedure: (§1) The lysis assay employed was a chromium release assay following Herin et al., Int. J. Cancer, 39:390-396 (1987), which is incorporated herein by reference. The assay, however, is described herein. The target melanoma cells were grown in vitro, and then resuspended at 4×10^7 cells/ml in DMEM, supplemented with DMEM with 10 mM HEPES and 50% FCS, and incubated for 60 minutes at 37° C. with 200 μCi/ml of Na(^51Cr)O4. Labelled cells were washed three times with DMEM, supplemented with 10 mM HEPES. These were then resuspended in DMEM supplemented with 10 mM HEPES and 10% FCS, after which 100 μl aliquots containing 10^3 cells, were distributed into 96 well microplates. Samples of PBLs were added in 100 μl of the same medium, and assays were carried out in duplicate. Plates were centrifuged for 4 minutes at 100 g, and incubated for four hours at 37° C. in a 8% CO2 atmosphere.
(§2) Plates were centrifuged again, and 100 μl aliquots of supernatant were collected and counted. Percentage of ^51Cr release was calculated as follows: [formula]
where ER is observed, experimental ^51Cr release, SR is spontaneous release measured by incubating 10^3 labeled cells in 200 μl of medium alone, and MR is maximum release, obtained by adding 100 μl 0.3% Triton X-100 to target cells.
Several synthetic peptides were prepared on this basis. Peptides were synthesized on solid phase using F-moc for transient NH2-terminal protection as described by Atherton et al., J. Chem. Soc. Lond. Perkin Trans., 1:538-546 (1981) and characterized by mass spectrometry. All peptides were >90% pure as indicated by analytical HPLC. Lyophilized peptides were dissolved at 20 mg/ml in DMSO, diluted at 2 mg/ml in 10 mM acetic acid and stored at […]. Peptides were tested in a CTL stimulation assay with COS-7 cells transfected by HLA-Cw*1601 and incubated with the peptides. They were also tested by chromium release assay as previously described (Boon et al., J. Exp. Med., 152:1184-1193 (1980)). In this peptide sensitization assay, target cells were ^51Cr-labelled for one hour at 37° C. and washed extensively. 1000 target cells were then incubated in 96-well microplates in the presence of various concentrations of peptide for 30 minutes at 37° C. before CTL 82/82 cells were added. Chromium release was measured after 4 hours at 37° C.
The final concentration of peptides during the incubation of the target cells with the CTL is indicated. The arrow indicates the percentage of lysis of MZ2-MEL.43 cells. […] P1.HTR cells were transfected with HLA-Cw*1601 and were incubated with nonapeptide AARAVFLAL (SEQ ID NO: 3). […] Lysis of chromium-labelled cells was tested after 4 hours.

[2] = test system: cells transfected with HLA-Cw*1601; test: CTL stimulation assay (TNF production) with HLA-Cw*1601-transfected cells incubated with peptide; assay type: cell-based; details: six CTL clones from patient MZ2; cells transfected with HLA-Cw*1601 and incubated with nonapeptide
Procedure: Cotransfectants were tested after 24 or 48 hours for their ability to stimulate the production of tumor necrosis factor (TNF) by CTLs (Traversari et al., Immunogenetics, 235:145-152 (1992)). 1500 CTLs were added in 100 μl of Iscove's medium (Gibco BRL) containing 10% human serum and 20 U/ml r-hu-IL-2 to microwells containing target cells. After 24 hours, the supernatant was collected and its TNF content was determined by testing its cytotoxic effect on cells of WEHI-164 clone 13 (Espevik et al., J. Immunol. Methods, 95:99-105 (1986)) in an MTT colorimetric assay (Hansen et al., J. Cancer, 39:390-396 (1989) and Traversari et al., supra).
Several synthetic peptides were prepared on this basis. Peptides were synthesized on solid phase using F-moc for transient NH2-terminal protection as described by Atherton et al., J. Chem. Soc. Lond. […] Chromium release was measured after 4 hours at 37° C.
From two MLTCs set up with different blood samples of patient MZ2, six CTL clones that recognized the BAGE/HLA-Cw*1601 antigen were derived. […] Vα and Vβ expression were determined as follows: Total RNA from the different CTL clones was prepared by using RNAzol*B (Cinna/Biotecx, Friendswood, Tex.). […] Specificity of TCR Vα and Vβ PCR amplification was assessed by Southern blotting and hybridization with ^32P-labelled Cα or Cβ oligonucleotides internal to the ones used for amplification.

[3] = test system: P1.HTR cells transfected with HLA-Cw*1601; test: chromium release assay: lysis by CTL clone 82/82 of P1.HTR transfected with HLA-Cw*1601 and incubated with peptide; assay type: cell-based, mouse; details: P1.HTR transfected with HLA-Cw*1601, 1 μM peptide, lysis tested after 4 hours
Procedure: as §1, §2
where ER is observed, experimental ^51Cr release, SR is spontaneous release measured by incubating 10^3 labeled cells in 200 μl of medium alone, and MR is maximum release, obtained by adding 100 μl 0.3% Triton X-100 to target cells. […]
Several synthetic peptides were prepared on this basis. […] Chromium release was measured after 4 hours at 37° C. […]

| Sequence | sensitization of target cells to lysis by CTL 82/82 [1] | response of CTL clones recognizing the BAGE/HLA-Cw*1601 antigen [2] | EC50 ([1]; MZ2-EBV targets incubated 30 minutes with peptide, CTL 82/82 added, read-out: peptide concentration giving half-maximal lysis) [nM] | lysis by CTL 82/82 of peptide-incubated transfected cells [3] |
| --- | --- | --- | --- | --- |
| ARAVFLALF | not able to sensitize target cells to lysis |  |  |  |
| MAARAVFLA | not able to sensitize target cells to lysis |  |  |  |
| AARAVFLAL [Ala Ala Arg Ala Val Phe Leu Ala Leu, BAGE-encoded nonapeptide (amino acids 2-10) recognized in association with HLA-Cw*1601 by CTL 82/82] | Sensitization of a lymphoblastoid cell line from patient MZ2 to lysis by CTL 82/82 was observed | responded | 30 | lysed by CTL 82/82 |
